Measurements from US20090137527A1, “Compositions and methods for modulating immune function” (Resolvyx Pharmaceuticals, Inc., priority 2007, published 2009).
“Also recorded” adds a separate entry of the source.

Columns and labels:
[1] = tested on: murine DNFB-induced DTH model; assay: DNFB-induced delayed-type-hypersensitivity (DTH) model, ear swelling; format: in vivo, mouse
Description: Ear-swelling (swelling of the skin on the pinnae) was the endpoint of this model. This study was carried out over 6 to 7 days, with events occurring as described below.
Mice (female BALB/c; n=10/group) were immunized with 0.5% of DNFB dissolved in acetone/olive oil. Sensitization was done with the contact allergen, wherein 20 μL of the solution was placed on the footpads of the animals.
[…] The mice were challenged at day 5. 10 μL of a 0.8% DNFB solution was topically applied externally on the right ear of the animal. As control, the left ear was treated the same way with vehicle alone (acetone/olive oil).
Animals were anesthetized with isoflurane and the ear swelling was measured within 24 to 48 hours after challenge using a micrometer. The micrometer calipers were closed around the top portion of the each external ear until resistance from the ear was felt. […]

spleen cells = assay: In vitro treatment of mouse spleen cells, CD3-induced cytokine production; format: cell-based; details: 10 nM or 1000 nM, 5 days culture, then anti-CD3 overnight
Description: BALB/c female mice, 6-8 weeks old, were euthanized and spleens were removed under sterile conditions. Spleens were gently pressed through a nylon strainer. Spleen cells and remaining connective tissue mass were incubated in a 6-well plate with 4 mL of Growth Media (RPMI 1640 supplemented with 10% FCS). Compound X was added to give a final concentration of 10 nM or 1000 nM. Control groups were spleen cells without addition of Compound X. All groups were in triplicates (3 animals per group). Plates were cultured in a 37° C., 5% CO2 incubator. Once a day, 1 mL of culture media was removed from each well and replaced with 1 mL fresh growth media containing the same concentration of Compound X or fresh media only. Culture was continued for 5 days. All cells were then removed from the plates. Cells were passed through a nylon strainer to remove any aggregates, washed, counted and adjusted to 2.5×10^6/mL in growth media. To anti-CD3 coated plates (coated per the procedure described below) were added 200 μL, or 5×10^5 cells per well. Cells were cultured in a 37° C., 5% CO2 incubator overnight. Supernatants were harvested, and cytokine levels were measured by Bioplex.
For CD3 stimulation, anti-mouse CD3 mAb (BD Pharmingen clone 145-2C11) was used at 0.2 μg/mL in PBS to coat flat bottom 96-well plate at 4° C. overnight. Plates were rinsed twice with PBS before use.

[2] = tested on: whole blood from CIA rats; assay: Ex vivo LPS-stimulated cytokines in whole blood from CIA rats; parameters: species or system rat; details: 0.3 mg/kg i.v. twice daily (day 20 sample: 1 mg/kg orally twice daily) from day 8; 10 ng/mL LPS, 4 hours
Description: (§1) Female Lewis rats were anesthetized with 3-5% isoflurane and arthritis was induced by intradermal injection of 0.3 mL (100 μL at three different sites) of an emulsion […] 1.5 mg/mL of type II bovine collagen, CII (Elastin Products Inc., Cat# CM276), in incomplete Freund's adjuvant (IFA) at the base of the tail on day 0 and 6. Control rats were injected with an equal amount of IFA only.
were measured under two different treatment regimens. In the first (prophylactic) treatment regimen, Compound X was administered i.v., twice daily, at 0.3 mg/kg from day 0 to day 6 or 10. For ex vivo studies, animals were euthanized on day 6 after the last injection and their inguinal lymph nodes were harvested. […] For ex vivo studies, animals were euthanized on day 16 and inguinal lymph nodes were harvested. Venous blood samples were collected during the course of treatment. For CD3 activation, 96-well flat bottom plates were coated with anti-CD3 mAb (eBioscience, clone G4.18) 1 μg/mL. Plates were stored overnight at 4° C., and were subsequently rinsed with PBS once before use. […] All data were processed and analyzed by t-test using GraphPad Prism software.
To measure the effect of Compound X on blood cells, rat whole blood samples were taken on day 8, 10, 13, 16 and 20 (n=3-6). […] After 4 hours in culture, supernatants were collected and cytokine levels measured by Bioplex.

rats with CIA = assay: Rat collagen-induced arthritis (CIA): paw swelling and knee histopathology; format: in vivo
Description: as §1
The volume of both hind paws were measured using a water displacement plethysmometer (Ugo Basile, Biological Research Apparatus, Italy), and the onset of arthritis was indicated by increased paw volume, which appeared approximately on day 11 post injection. Both paw volumes and body weights were measured throughout the study every 2-3 days. Nineteen to twenty-one days after CII injection, the rats were euthanized with CO2. Blood was collected by cardiac puncture and serum was saved.
were measured under two different treatment regimens. In the first (prophylactic) treatment regimen, Compound X was administered i.v., twice daily, at 0.3 mg/kg from day 0 to day 6 or 10. For ex vivo studies, animals were euthanized on day 6 after the last injection and their inguinal lymph nodes were harvested. […] For ex vivo studies, animals were euthanized on day 16 and inguinal lymph nodes were harvested. Venous blood samples were collected during the course of treatment. For CD3 activation, 96-well flat bottom plates were coated with anti-CD3 mAb (eBioscience, clone G4.18) 1 μg/mL. Plates were stored overnight at 4° C., and were subsequently rinsed with PBS once before use. Bovine Type II collagen for tissue culture was purchased from Chondrex (Cat# 2022) and was reconstituted according to the manufacturer's instructions. All data were processed and analyzed by t-test using GraphPad Prism software.
After the animals were euthanized, both hind paws and knees were removed, hind paws were weighed, and the paws and knees were placed in formalin. Following 1-2 days in fixative and 4-5 days in decalcifier, the ankle joints were cut in half longitudinally, and the knees were cut in half in the frontal plane. The joints were then processed, embedded, sectioned and stained with toluidine blue. Collagen arthritic ankles and knees were given scores of 0-5 for inflammation, pannus formation and bone resorption according to the following criteria:
1 Minimal infiltration of inflammatory cells in periarticular tissue 2 Mild infiltration 3 Moderate infiltration with moderate edema 4 Marked infiltration with marked edema 5 Severe infiltration with severe edema […]

[3] = therapeutic, twice daily i.v. 0.3 mg/kg, days 8 to 19

SMILES: CC[C@@H](O)/C=C/C=C\C[C@@H](O)/C=C/C=C/C=C\[C@@H](O)CCCC(=O)O [Compound X]
- maximal efficacy, inhibition of tissue (ear) swelling ([1]; 30 μg/kg i.v., 15 minutes before challenge, ear thickness 24 hours after challenge): 38%
- inhibition of the DTH response, Compound X versus dexamethasone ([1]; dexamethasone 60 minutes prior to DNFB challenge): comparable levels of inhibition
- DNFB-DTH response, two regimens ([1]; i.p. 0.03 mg/kg once daily day 0 to day 5, or single injection on day 5): comparable and significant reduction
- tissue swelling, dose dependence ([1]; i.v., 15 minutes before challenge): dose-dependently reduced
- CD3-induced cytokine production of spleen cells after in vitro treatment (spleen cells): inhibited
- ex vivo LPS-stimulated cytokine production in whole blood [2]: inhibited; also recorded: significantly lower
- paw swelling (as measured by ankle diameter) (rats with CIA; prophylactic, twice daily i.v. 0.3 mg/kg, days 0 to 10): significant reduction
- bone resorption and joint damage (rats with CIA; therapeutic dosing): protected
- knee histopathology scores: inflammation, pannus, cartilage damage, bone resorption (rats with CIA; [3]): significant reduction
- mean ankle joint volume (rats with CIA; [3]): significant reduction
